Test results taken from patent publication US20250304620A1, “ANTIMICROBIAL PEPTIDE AND APPLICATION THEREOF” (priority 2023, published 2025).
Converted amounts (≈) assume the structure as drawn. Marks after values point to notes of the source that are not given here. Non-standard residues stand in square brackets, D forms with d. Residues, ends and D or L forms follow the SMILES beside them. dPhe(4-Cl) = N[C@H](Cc1ccc(Cl)cc1)C(=O)O; d2Nal = N[C@H](Cc1ccc2ccccc2c1)C(=O)O; dNva = CCC[C@@H](N)C(=O)O

Key:
[1] = system: Pseudomonas aeruginosa ATCC 27853; assay: Injectable formulations on mice infected with peritonitis; assay type: in vivo, ICR mice; conditions: 1 mg/kg via tail vein, twice a day for 3 days, n = 10; for Average survival times (Days): observed for 14 d
How it was run: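 Survival readout: deaths and survival time tracked for 14 d. Treatment was tail-vein injection by body weight, twice a day for 3 consecutive days, starting right after intraperitoneal challenge with 0.2 mL of 1×10^9 CFU/mL P. aeruginosa ATCC 27853 in male and female ICR mice.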

[2] = system: Klebsiella pneumoniae ATCC 700603; assay type: cell-based
How it was run: (§1)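 Read-out is MIC, from a CLSI-conformant twofold microdilution series, done in quintuplicate in parallel.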

[3] = system: Candida krusei ATCC 6258; assay type: cell-based
How it was run: as §1

[4] = system: Bacillus subtilis ATCC 6633; assay type: cell-based
How it was run: as §1

[5] = system: Staphylococcus aureus ATCC 25923; assay type: cell-based
How it was run: as §1

[6] = system: Candida utilis ATCC 9950; assay type: cell-based
How it was run: as §1

[7] = system: Candida tropicalis ATCC 750; assay type: cell-based
How it was run: as §1

[8] = system: Enterococcus ATCC 29212; assay type: cell-based
How it was run: as §1

[9] = system: Candida albicans ATCC MYA-2876; assay type: cell-based
How it was run: as §1

[10] = system: Corynebacterium ATCC 7715; assay type: cell-based
How it was run: as §1

[11] = system: Salmonella typhimurium ATCC 14028; assay type: cell-based
How it was run: as §1

[12] = system: Trichophyton ATCC MYA-4438; assay type: cell-based
How it was run: as §1

[13] = system: Escherichia coli ATCC 25922; assay type: cell-based
How it was run: as §1

[14] = system: Serratia marcescens ATCC 29021; assay type: cell-based
How it was run: as §1

[15] = system: Pseudomonas aeruginosa ATCC 27853; assay type: cell-based
How it was run: as §1

[16] = system: Candida glabrata ATCC 15126; assay type: cell-based
How it was run: as §1

[17] = system: Escherichia coli ATCC 25922; assay: Oral formulations on mice with systemic bacterial infection; assay type: in vivo, ICR mice; conditions: 1 mg/kg gavage, three times a day for 7 days, n = 10; for Average survival times (Days): observed for 14 d
How it was run: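 Survival time and deaths were logged over a 14 d observation after oral gavage dosing (by body weight, thrice daily, 7 days, starting right after infection). Model: mixed-sex ICR mice, n=10 per group, intraperitoneal injection of E. coli ATCC 25922 suspension (0.2 mL, 1×10^7 CFU/mL).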

[18] = system: Staphylococcus aureus (NRS 384); assay: microbe, parasite or virus in culture; assay type: cell-based; conditions: NRS 384
How it was run: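 MICs were read against S. aureus strain NRS 384 using twofold serial dilution by CLSI microdilution rules. Levofloxacin and Cbf-K16 were the reference controls, and the test was repeated 5 times in parallel.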

[19] = system: Staphylococcus aureus (NRS 384); conditions: NRS 384, 3 h
Protocol: Trypsin (250 U/mg, pH=8.0) and AMPs (LV-1 to LV-30) were mixed in a ratio of 1:10 (w/w) and added to a reaction buffer (0.2 M sodium phosphate, 1 mM CaCl2), pH 7.5), and then incubated at 37° C. for 3 h.

| Structure (SMILES) | Number of mice that died on each day after infection: day 1 [1] [Mouse] | Number of mice that died on each day after infection: day 2 [1] [Mouse] | Number of mice that died on each day after infection: day 3 [1] [Mouse] | Number of mice that died on each day after infection: day 4 [1] [Mouse] | Number of mice that died on each day after infection: day 5 [1] [Mouse] | Average survival times (Days) [1] | MIC Klebsiella pneumoniae ATCC 700603 [2] [mg/L] | MIC Candida krusei ATCC 6258 [3] [mg/L] | MIC Bacillus subtilis ATCC 6633 [4] [mg/L] | MIC Staphylococcus aureus ATCC 25923 [5] [mg/L] | MIC Candida utilis ATCC 9950 [6] [mg/L] | MIC Candida tropicalis ATCC 750 [7] [mg/L] | MIC Enterococcus ATCC 29212 [8] [mg/L] | MIC Candida albicans ATCC MYA-2876 [9] [mg/L] | MIC Corynebacterium ATCC 7715 [10] [mg/L] | MIC Salmonella typhimurium ATCC 14028 [11] [mg/L] | MIC Trichophyton ATCC MYA-4438 [12] [mg/L] | MIC Escherichia coli ATCC 25922 [13] [mg/L] | MIC Serratia marcescens ATCC 29021 [14] [mg/L] | MIC Pseudomonas aeruginosa ATCC 27853 [15] [mg/L] | other results |
| --- | --- | --- | --- | --- | --- | --- | --- | --- | --- | --- | --- | --- | --- | --- | --- | --- | --- | --- | --- | --- | --- |
| CC(=O)N[C@H](CCCNC(=N)N)C(=O)N[C@H](CCCCN)C(=O)N[C@H](CC(C)C)C(=O)N[C@H](CC(C)C)C(=O)N[C@H](Cc1ccc2ccccc2c1)C(=O)N[C@H](CCCNC(=N)N)C(=O)N[C@H](CC(C)C)C(=O)N[C@H](CCCCN)C(=O)N[C@H](Cc1ccc2ccccc2c1)C(=O)N[C@H](CCCNC(=N)N)C(=O)N[C@H](CCCNC(=N)N)C(N)=O [LV-22] (Ac-[dR][dK][dL][dL][d2Nal][dR][dL][dK][d2Nal][dR][dR]-NH2) | 1 | 1 | 0 | 1 | 1 | 9.6*** Days | 2 (≈ 1.19 µM) | 8 (≈ 4.78 µM) | 4 (≈ 2.39 µM) | 1 (≈ 0.597 µM) | 16 (≈ 9.56 µM) | 8 (≈ 4.78 µM) | 2 (≈ 1.19 µM) | 8 (≈ 4.78 µM) | 4 (≈ 2.39 µM) | 4 (≈ 2.39 µM) | 4 (≈ 2.39 µM) | 2 (≈ 1.19 µM) | 4 (≈ 2.39 µM) | 2 (≈ 1.19 µM) | MIC Candida glabrata ATCC 15126 [16]: 8 mg/L (≈ 4.78 µM); Number of mice that died on each day after infection: day 4 [17]: 0 Mouse; Number of mice that died on each day after infection: day 5 [17]: 2 Mouse; Number of mice that died on each day after infection: day 6 [17]: 1 Mouse; Number of mice that died on each day after infection: day 7 [17]: 1 Mouse; Number of mice that died on each day after infection: day 8 [17]: 2 Mouse; Average survival times (Days) [17]: 9.5** Days; MIC against Staphylococcus aureus (NRS 384) [18]: 1 mg/L (≈ 0.597 µM); Trypsin MIC [19]: 1 mg/L |
| CC(=O)N[C@H](CCCNC(=N)N)C(=O)N[C@H](CCCCN)C(=O)N[C@H](CC(C)C)C(=O)N[C@H](CC(C)C)C(=O)N[C@H](Cc1ccc(Cl)cc1)C(=O)N[C@H](CCCCN)C(=O)N[C@H](CC(C)C)C(=O)N[C@H](CCCCN)C(=O)N[C@H](Cc1ccc(Cl)cc1)C(=O)N[C@H](CCCCN)C(=O)N[C@H](CCCNC(=N)N)C(N)=O [LV-7] (Ac-[dR][dK][dL][dL][dPhe(4-Cl)][dK][dL][dK][dPhe(4-Cl)][dK][dR]-NH2) | 0 | 1 | 1 | 1 | 1 | 9.8*** Days | 2 (≈ 1.26 µM) | 8 (≈ 5.04 µM) | 4 (≈ 2.52 µM) | 1 (≈ 0.63 µM) | 8 (≈ 5.04 µM) | 8 (≈ 5.04 µM) | 8 (≈ 5.04 µM) | 8 (≈ 5.04 µM) | 4 (≈ 2.52 µM) | 4 (≈ 2.52 µM) | 8 (≈ 5.04 µM) | 4 (≈ 2.52 µM) | 8 (≈ 5.04 µM) | 2 (≈ 1.26 µM) | MIC Candida glabrata ATCC 15126 [16]: 8 mg/L (≈ 5.04 µM); Number of mice that died on each day after infection: day 4 [17]: 2 Mouse; Number of mice that died on each day after infection: day 5 [17]: 2 Mouse; Number of mice that died on each day after infection: day 6 [17]: 0 Mouse; Number of mice that died on each day after infection: day 7 [17]: 1 Mouse; Number of mice that died on each day after infection: day 8 [17]: 1 Mouse; Average survival times (Days) [17]: 8.9** Days; MIC against Staphylococcus aureus (NRS 384) [18]: 1 mg/L (≈ 0.63 µM); Trypsin MIC [19]: 1 mg/L |
| CC(=O)N[C@H](CCCNC(=N)N)C(=O)N[C@H](CCCCN)C(=O)N[C@@H](C(=O)N[C@@H](C(=O)N[C@H](Cc1ccc2ccccc2c1)C(=O)N[C@H](CCCNC(=N)N)C(=O)N[C@@H](C(=O)N[C@H](CCCCN)C(=O)N[C@H](Cc1ccc2ccccc2c1)C(=O)N[C@H](CCCNC(=N)N)C(=O)N[C@H](CCCCN)C(N)=O)C(C)C)C(C)C)C(C)C [LV-16] (Ac-[dR][dK][dV][dV][d2Nal][dR][dV][dK][d2Nal][dR][dK]-NH2) | 2 | 1 | 1 | 1 | 0 | 8.1** Days | 2 (≈ 1.25 µM) | 4 (≈ 2.49 µM) | 4 (≈ 2.49 µM) | 1 (≈ 0.623 µM) | 8 (≈ 4.99 µM) | 4 (≈ 2.49 µM) | 2 (≈ 1.25 µM) | 8 (≈ 4.99 µM) | 2 (≈ 1.25 µM) | 2 (≈ 1.25 µM) | 8 (≈ 4.99 µM) | 1 (≈ 0.623 µM) | 4 (≈ 2.49 µM) | 4 (≈ 2.49 µM) | MIC Candida glabrata ATCC 15126 [16]: 16 mg/L (≈ 9.97 µM); Number of mice that died on each day after infection: day 4 [17]: 1 Mouse; Number of mice that died on each day after infection: day 5 [17]: 1 Mouse; Number of mice that died on each day after infection: day 6 [17]: 1 Mouse; Number of mice that died on each day after infection: day 7 [17]: 0 Mouse; Number of mice that died on each day after infection: day 8 [17]: 2 Mouse; Average survival times (Days) [17]: 10.1*** Days; MIC against Staphylococcus aureus (NRS 384) [18]: 1 mg/L (≈ 0.623 µM); Trypsin MIC [19]: 1 mg/L |
| CCC[C@@H](NC(=O)[C@@H](CCCCN)NC(=O)[C@@H](CCCNC(=N)N)NC(C)=O)C(=O)N[C@H](CCC)C(=O)N[C@H](Cc1ccc2ccccc2c1)C(=O)N[C@H](CCCNC(=N)N)C(=O)N[C@H](CCC)C(=O)N[C@H](CCCCN)C(=O)N[C@H](Cc1ccc2ccccc2c1)C(=O)N[C@H](CCCNC(=N)N)C(=O)N[C@H](CCCCN)C(N)=O [LV-13] (Ac-[dR][dK][dNva][dNva][d2Nal][dR][dNva][dK][d2Nal][dR][dK]-NH2) | 3 | 1 | 0 | 1 | 0 | 7.9** Days | 4 (≈ 2.49 µM) | 4 (≈ 2.49 µM) | 4 (≈ 2.49 µM) | 2 (≈ 1.25 µM) | 8 (≈ 4.99 µM) | 4 (≈ 2.49 µM) | 8 (≈ 4.99 µM) | 16 (≈ 9.97 µM) | 4 (≈ 2.49 µM) | 2 (≈ 1.25 µM) | 4 (≈ 2.49 µM) | 2 (≈ 1.25 µM) | 4 (≈ 2.49 µM) | 4 (≈ 2.49 µM) | MIC Candida glabrata ATCC 15126 [16]: 8 mg/L (≈ 4.99 µM); Number of mice that died on each day after infection: day 4 [17]: 3 Mouse; Number of mice that died on each day after infection: day 5 [17]: 1 Mouse; Number of mice that died on each day after infection: day 6 [17]: 1 Mouse; Number of mice that died on each day after infection: day 7 [17]: 0 Mouse; Number of mice that died on each day after infection: day 8 [17]: 0 Mouse; Average survival times (Days) [17]: 9.3** Days; MIC against Staphylococcus aureus (NRS 384) [18]: 1 mg/L (≈ 0.623 µM); Trypsin MIC [19]: 1 mg/L |
